US8569286B2, “Notch pathway signaling inhibitor compound” (Eli Lilly and Company, priority 2011, dated 2013)

Key:
HEK293ΔE12 cells = test: Relative cytotoxicity profiling (% cell number) in the N1ICD imaging assay; type: cell-based; settings: 24 hours treatment
Experimental: (§1) HEK293ΔE12 cells (HEK293 cells are engineered to stably express mouse Notch 1 cDNA coding for amino acid 1703-2183, NP_032740.3, with 23 amino acid signal peptide sequence, […] (SEQ ID NO:1), at its N-terminus) are plated at 5000 cells/well in 96 well plates, incubated in Dulbecco's Modified Eagle's Medium-high glucose with 5% fetal bovine serum at 37° C., 5% CO2 for 24 hours. Cells are treated with test compound, dosing at 10 points of 1:3 dilutions across the range of 1000 nM to 0.05 nM, and with final dimethyl sulfoxide (DMSO) concentration at 0.2%. […] Plates are scanned with ACUMEN EXPLORER™ Laser-scanning fluorescence microplate cytometer (TTP LABTECH LTD) to measure total cell nuclear count/well and total nuclear area/well with fluorescence at 655 nm-705 nm (emission of DNA bound propidium iodide) and fluorescence of antibody binding to N1ICD in nuclear region at 505 nm-530 nm. The main assay output is a ratio of total fluorescence of nuclear N1ICD to total nuclear area, the normalized nuclear N1ICD signal. […] Concentration response and the IC50 are determined by curve fitting to a four parameter logistic for the nuclear N1ICD signal, while the % cell number is plotted in the same graph for cytotoxicity profiling.

[1] = In vivo pharmacokinetics, excretion and metabolism in rats
Experimental: Compound 1 was evaluated in vivo in bile-duct cannulated rats to study systemic pharmacokinetics (PK), excretion, and metabolism. In vivo 51% of the IV dose was excreted unchanged, predominately in the urine, with low (2% of parent) systemic exposure to an active N-dealkylated metabolite, 4,4,4-trifluoro-N-[(1S)-1-methyl-2-oxo-2-[[(7S)-6-oxo-5,7-dihydropyrido[2,3-d][3]benzazepin-7-yl]amino]ethyl]butanamide.

[2] = Metabolism by liver microsomes optimized for oxidative CYP450 metabolism; type: in vitro ADME
[3] = In vivo metabolism and excretion in dogs
[4] = Atropisomer equilibrium in solution (1H NMR and LC-MS); type: physicochemical; settings: ambient temperature, after 24 hours
Experimental: In aqueous solutions, 8-9% of atropisomer 2 (minor atropisomer) is detected by ^1H NMR and LC-MS in equilibrium with atropisomer 1 (major atropisomer) at ambient temperature after 24 hours. In organic solvents, at ambient temperature after 24 hours, approximately 1-2% of atropisomer 2 is detected by ^1H NMR and LC-MS in equilibrium with atropisomer 1. Although detectable by ^1H NMR and LC-MS analysis, atropisomer 2 is not isolable.

[5] = tested on: mouse Notch 1 (nuclear N1ICD signal); test: Notch1 N1ICD Nuclear Accumulation Cellular Imaging Assay; type: cell-based; settings: HEK293ΔE12 cells, 24 hours treatment, n=7
Experimental: as §1

N1ICD cleavage (Notch1) = test: Inhibition of N1ICD cleavage in human tumor cell lines (N1ICD ELISA); type: cell-based; settings: 24 hours treatment
From the text: To evaluate potency of Compound 1 in its ability to inhibit N1ICD cleavage, several human tumor cell lines are utilized. A2780 is a human ovarian cell line (Sigma-Aldrich, No. 93112519); MIA PaCa-2 is a human pancreas cell line (ATCC No. CRL-1420); BxPC-3 is a human pancreas cell line (ATCC No. CRL-1687); SW480 is a human colorectal cell line (ATCC No. CCL-228); HCT 116 is a human colorectal cell line (ATCC No. CCL-247); DLD-1 is a human colorectal cell line (ATCC No. CCL-221); MDA-MB-231 is a human mammary gland cell line (ATCC No. HTB-26); U-87 MG is a human glioblastoma cell line (ATCC No. HTB-14); A375 is a human malignant melanoma cell line (ATCC No. CRL-1619); CCRF-CEM is a human acute lymphoblastic leukemia (ALL) cell line (ATCC No. CCL-119); SUP-T1 is a human T-cell lymphoblastic leukemia cell line (ATCC No. CRL-1942); K-562 is a human chronic myelogenous leukemia (CML) cell line characterized by the presence of a fusion transcript comprised of the Bcr and Abl1 genes (ATCC No. CCL-243); Jurkat, Clone E6-1 is a human acute T-cell leukemia cell line (ATCC No. TIB-152); MOLT-3 is a human acute lymphoblastic leukemia (ALL) cell line (ATCC No. CRL-1552); MOLT-4 is a human acute lymphoblastic leukemia (ALL) cell line (ATCC No. CRL-1582); HEL 92.1.7 is a human erythroleukemia cell line (ATCC No. TIB-180). Each of the cell lines are obtained from the American Type Culture Collection (ATCC) at the ATCC number stated, except the A2780 cell line which is obtained from Sigma-Aldrich at the stated catalog number. The cells are grown in their respective culture media at 37° C. in 5% CO2 with humidity in the atmosphere. Cell culture media for A2780 human ovarian carcinoma is RPMI-1640 (without phenol red) with 2.05 mM L-glutamine, added 2 mM L-glutamine, 0.01 mg/ml insulin and 10% fetal bovine serum (FBS); for HCT 116 human colorectal carcinoma is McCoy's 5A with 1.5 mM L-glutamine, 0.075% Na-bicarbonate and 10% FBS; for SW480 human colorectal carcinoma is RPMI-1640 with 2.05 mM L-glutamine, 20 mM HEPES and 10% FBS; U-87 MG human glioblastoma is Minimal Essential Medium/Earl's Balanced Salt Solution with 2 mM L-glutamine, 0.1 mM Non-essential amino acids (NEAA), 1 mM Na-pyruvate, and 10% FBS; for MIA PaCa-2 human pancreatic carcinoma is Dulbecco's Modified Eagles Medium (DMEM) without Na-pyruvate, with high glucose ([…]), 4 mM L-glutamine, 2.5% horse serum and 10% FBS; for K-562 human CML is DMEM with high glucose ([…]), 4 mM L-glutamine, 10 mM HEPES, 0.1 mM NEAA, 1 mM Na-pyruvate and 10% FBS; for Jurkat, Clone E6-1 human acute T cell leukemia is RPMI-1640 with 2.05 mM L-glutamine, 2.5 g/L glucose, 10 mM HEPES, 1 mM Na-pyruvate, 0.075% Na-bicarbonate and 10% FBS; for A-375 human malignant melanoma and MDA-MB-231 human breast adenocarcinoma is DMEM with high glucose ([…]), 4 mM L-glutamine and 10% FBS; for BxPC-3 human pancreatic adenocarcinoma, DLD-1 human colorectal adenocarcinoma, SUP-T1 human lymphoblastic leukemia, MOLT-3 human ALL, Molt-4 human ALL, CCRF-CEM human ALL, and HEL 92.1.7 human erythroleukemia is RPMI-1640 with 2.05 mM L-glutamine, 2.5 g/L glucose, 20 mM HEPES, 1 mM Na-pyruvate, and 10% FBS. When 80-90% confluent, cells are treated with compound, dosing at 10 points of 1:3 dilutions across the range of 50 nM to 0.0025 nM, and with final dimethyl sulfoxide (DMSO) concentration at 0.01%. […]

major CYP450 enzymes = test: CYP450 inhibition and induction; type: in vitro ADME

C[C@H](NC(=O)CCC(F)(F)F)C(=O)N[C@@H]1C(=O)N(CCO)c2ncccc2-c2ccccc21 [Compound 1, 4,4,4-trifluoro-N-[(1S)-2-[[(7S)-5-(2-hydroxyethyl)-6-oxo-7H-pyrido[2,3-d][3]benzazepin-7-yl]amino]-1-methyl-2-oxo-ethyl]butanamide]
concentration up to which cell number is not affected (cytotoxicity profiling) (HEK293ΔE12 cells): > 1000 nM
dose excreted unchanged ([1]; bile-duct cannulated rats, IV dose, predominately in the urine): 51%
additional circulating metabolites (profiling of rat plasma) ([1]; rat plasma): absence of additional circulating metabolites
major oxidative metabolites in circulation or excreta ([1]; rats in vivo): not observed
metabolism by liver microsomes [2]: not metabolized to any appreciable extent
clearance by excretion of parent compound ([3]; bile-duct intact dogs): appreciable clearance by excretion of parent compound
major circulating active metabolites ([3]; bile-duct intact dogs): absence of major circulating active metabolites
major oxidative metabolites in circulation or excreta ([3]; dogs in vivo): not observed
atropisomer 2 (minor atropisomer) in equilibrium with atropisomer 1 ([4]; aqueous solutions): 8-9%
atropisomer 2 (minor atropisomer) in equilibrium with atropisomer 1 ([4]; organic solvents): 1-2%
IC50 [5]: 0.41 nM
IC50 (N1ICD cleavage (Notch1); A2780 cells): 1.03 nM
IC50 (N1ICD cleavage (Notch1); A-375 cells): 0.48 nM
IC50 (N1ICD cleavage (Notch1); BxPC-3 cells): 0.39 nM
IC50 (N1ICD cleavage (Notch1); CCRF-CEM cells): 0.76 nM
IC50 (N1ICD cleavage (Notch1); DLD-1 cells): 0.98 nM
IC50 (N1ICD cleavage (Notch1); HCT 116 cells): 0.72 nM
IC50 (N1ICD cleavage (Notch1); HEL 92.1.7 cells): 0.23 nM
IC50 (N1ICD cleavage (Notch1); Jurkat cells): 5.95 nM
IC50 (N1ICD cleavage (Notch1); K-562 cells): 0.74 nM
IC50 (N1ICD cleavage (Notch1); MDA-MB-231 cells): 0.5 nM
IC50 (N1ICD cleavage (Notch1); MIA PaCa-2 cells): 0.71 nM
IC50 (N1ICD cleavage (Notch1); MOLT-3 cells): 0.61 nM
IC50 (N1ICD cleavage (Notch1); MOLT-4 cells): 0.74 nM
IC50 (N1ICD cleavage (Notch1); SUP-T1 cells): 1.24 nM
IC50 (N1ICD cleavage (Notch1); SW480 cells): 0.1 nM
IC50 (N1ICD cleavage (Notch1); U-87 MG cells): 0.28 nM
inhibition or induction of the major CYP450 enzymes (major CYP450 enzymes): not an inhibitor or inducer
